# According to patent publication US20100216779A1 (GLAXOSMITHKLINE LLC, priority 2007, published 2010):
# Assays:
# Type in all cases: cell-based
# [1] = biological target: T1, IR (NIH-3T3 cells over expressing human IGF-1R or IR) (Homo sapiens, UniProt P06213); assay: IR cellular autophosphorylation (DELFIA); details: NIH-3T3 cells over expressing IR, insulin stimulated
# T1 construct: expressed in transfected cells; host or cells: NIH-3T3 (mouse fibroblasts)
# Summary of the method: (§1)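 Read-out: DELFIA on lysates, receptor-specific capture antibody plus europium-labelled anti-phosphotyrosine, reported as % of IGF-1- or insulin-stimulated signal. Transfected NIH-3T3 cells got compound (30 uM–1.5 nM, 2 h) before a 15 min ligand pulse: IGF-1 30 ng/mL for IGF-1R, insulin 3 ug/mL for IR.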
# [2] = test system: COLO205 (colon); assay: Inhibition of cell proliferation, CellTiter-Glo, COLO205; details: Homo sapiens, COLO 205, 72 h
# Summary of the method: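 Exponentially growing COLO205 cells in medium with 10% FBS were plated below 2000 cells/well at 37 °C, 5% CO2. Untreated wells served as controls.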
# [3] = biological target: T2, human IGF-1R (NIH-3T3 cells over expressing human IGF-1R) (Homo sapiens, UniProt P08069); assay: IGF-1R cellular autophosphorylation (DELFIA); details: IGF-1 stimulated
# T2 construct: expressed in transfected cells; host or cells: NIH-3T3 (mouse fibroblasts)
# Summary of the method: as §1
# [4] = test system: NCI-H929 (multiple myeloma); assay: Inhibition of cell proliferation, CellTiter-Glo, NCI-H929; details: Homo sapiens, 72 h
# Summary of the method: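 Cells were grown in medium with 10% FBS at 37° C, 5% CO2. Cell number was read as CellTiter-Glo luminescence (cellular ATP), with untreated wells as control.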
# T1 sequence (P06213 28-1382): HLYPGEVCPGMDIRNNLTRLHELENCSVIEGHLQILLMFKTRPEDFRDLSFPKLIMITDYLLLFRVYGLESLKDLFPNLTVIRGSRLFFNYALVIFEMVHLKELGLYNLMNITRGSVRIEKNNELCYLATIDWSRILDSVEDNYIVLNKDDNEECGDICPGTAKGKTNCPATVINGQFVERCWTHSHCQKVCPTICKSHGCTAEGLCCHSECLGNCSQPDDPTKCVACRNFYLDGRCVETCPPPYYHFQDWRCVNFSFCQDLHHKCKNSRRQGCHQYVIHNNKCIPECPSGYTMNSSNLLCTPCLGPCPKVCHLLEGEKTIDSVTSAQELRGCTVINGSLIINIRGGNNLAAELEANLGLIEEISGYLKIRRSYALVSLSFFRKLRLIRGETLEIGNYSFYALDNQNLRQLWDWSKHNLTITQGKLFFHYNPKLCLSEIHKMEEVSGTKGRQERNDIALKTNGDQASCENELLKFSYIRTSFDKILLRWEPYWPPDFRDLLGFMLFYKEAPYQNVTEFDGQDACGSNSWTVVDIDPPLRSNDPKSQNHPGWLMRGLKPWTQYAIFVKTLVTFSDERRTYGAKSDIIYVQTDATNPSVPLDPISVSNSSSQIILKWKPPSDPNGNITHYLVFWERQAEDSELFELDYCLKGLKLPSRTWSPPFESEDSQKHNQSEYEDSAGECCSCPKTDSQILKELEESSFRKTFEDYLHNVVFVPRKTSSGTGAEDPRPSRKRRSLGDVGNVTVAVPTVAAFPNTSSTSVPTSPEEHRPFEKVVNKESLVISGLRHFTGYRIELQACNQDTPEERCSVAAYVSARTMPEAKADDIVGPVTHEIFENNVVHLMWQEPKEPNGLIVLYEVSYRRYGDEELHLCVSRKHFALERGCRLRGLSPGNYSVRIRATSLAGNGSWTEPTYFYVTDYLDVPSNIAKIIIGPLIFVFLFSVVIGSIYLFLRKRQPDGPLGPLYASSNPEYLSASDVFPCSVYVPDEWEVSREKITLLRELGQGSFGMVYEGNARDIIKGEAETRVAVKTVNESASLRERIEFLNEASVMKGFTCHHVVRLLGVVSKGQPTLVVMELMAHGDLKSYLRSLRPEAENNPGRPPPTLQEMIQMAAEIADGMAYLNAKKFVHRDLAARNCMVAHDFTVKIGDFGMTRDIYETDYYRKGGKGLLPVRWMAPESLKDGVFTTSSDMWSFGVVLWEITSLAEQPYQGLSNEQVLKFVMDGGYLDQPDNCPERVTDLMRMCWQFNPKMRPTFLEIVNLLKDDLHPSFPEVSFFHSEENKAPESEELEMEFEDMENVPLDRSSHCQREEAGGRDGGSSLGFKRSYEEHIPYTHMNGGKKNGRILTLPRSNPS
# T2 sequence (P08069 31-1367): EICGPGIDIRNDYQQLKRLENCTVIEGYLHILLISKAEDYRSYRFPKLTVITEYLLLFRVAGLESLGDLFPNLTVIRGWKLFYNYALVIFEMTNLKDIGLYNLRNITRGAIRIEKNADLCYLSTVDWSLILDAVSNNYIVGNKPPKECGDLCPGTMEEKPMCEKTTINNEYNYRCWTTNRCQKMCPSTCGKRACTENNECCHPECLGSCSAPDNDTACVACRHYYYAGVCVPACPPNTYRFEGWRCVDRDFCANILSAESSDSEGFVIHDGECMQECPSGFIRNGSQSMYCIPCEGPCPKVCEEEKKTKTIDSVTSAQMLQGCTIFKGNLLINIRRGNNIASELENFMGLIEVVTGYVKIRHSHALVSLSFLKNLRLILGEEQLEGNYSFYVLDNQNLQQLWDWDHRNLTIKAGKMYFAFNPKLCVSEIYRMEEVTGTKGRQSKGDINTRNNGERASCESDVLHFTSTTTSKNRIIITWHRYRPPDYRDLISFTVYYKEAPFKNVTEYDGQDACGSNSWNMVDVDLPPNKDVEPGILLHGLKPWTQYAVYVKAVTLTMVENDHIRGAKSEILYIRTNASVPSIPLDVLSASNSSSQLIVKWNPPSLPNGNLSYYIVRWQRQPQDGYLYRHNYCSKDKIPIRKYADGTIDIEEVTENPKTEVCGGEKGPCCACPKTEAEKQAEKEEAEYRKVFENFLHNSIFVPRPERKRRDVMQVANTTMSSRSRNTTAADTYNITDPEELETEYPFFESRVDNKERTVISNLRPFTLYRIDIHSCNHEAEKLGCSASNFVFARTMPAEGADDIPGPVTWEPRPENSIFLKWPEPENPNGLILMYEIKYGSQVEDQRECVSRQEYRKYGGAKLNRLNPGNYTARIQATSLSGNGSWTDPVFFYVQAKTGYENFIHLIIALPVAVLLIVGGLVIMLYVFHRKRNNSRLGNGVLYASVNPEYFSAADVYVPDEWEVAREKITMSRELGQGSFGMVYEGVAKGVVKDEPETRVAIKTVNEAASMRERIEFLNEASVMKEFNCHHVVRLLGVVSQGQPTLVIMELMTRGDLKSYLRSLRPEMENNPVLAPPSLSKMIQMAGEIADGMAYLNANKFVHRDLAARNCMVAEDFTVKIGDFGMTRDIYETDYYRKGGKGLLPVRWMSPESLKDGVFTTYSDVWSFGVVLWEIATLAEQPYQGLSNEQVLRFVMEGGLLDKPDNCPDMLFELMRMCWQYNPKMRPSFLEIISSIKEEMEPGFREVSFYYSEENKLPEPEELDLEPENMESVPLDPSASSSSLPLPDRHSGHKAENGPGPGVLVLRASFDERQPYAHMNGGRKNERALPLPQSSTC
Structure (SMILES),IC50 [1] [µM],IC50 [2] [µM],IC50 [3] [µM],IC50 [4] [µM]
"COc1cc(N2CCC(CCS(C)(=O)=O)CC2)ccc1Nc1nccc(-c2c(-c3cccc(C(=O)Nc4c(F)cccc4F)c3)nc3ccccn23)n1 [Example 202, N-(2,6-difluorophenyl)-3-(3-{2-[(2-(methyloxy)-4-{4-[2-(methylsulfonyl)ethyl)-1-piperidinyl}phenyl)amino]-4-pyrimidinyl]imidazo[1,2-a]pyridin-2-yl)benzamide]",0.1 to 0.5,0.25 to 1,0.1 to 0.5,< 0.25
"COc1cc(N2CCC(N3CCN(CCF)CC3)CC2)c(OC)cc1Nc1nccc(-c2c(-c3cccc(C(=O)Nc4c(F)cccc4F)c3)nc3ccccn23)n1 [Example 111, N-(2,6-difluorophenyl)-3-[3-(2-{[4-{4-[4-(2-fluoroethyl)-1-piperazinyl]-1-piperidinyl}-2,5-bis(methyloxy)phenyl]amino}-4-pyrimidinyl)imidazo[1,2-a]pyridin-2-yl]benzamide]",< 0.1,0.25 to 1,< 0.1,< 0.25
"COc1cc(N2CCC(N3CCCCC3)CC2)ccc1Nc1nccc(-c2c(-c3cccc(C(=O)Nc4c(F)cccc4F)c3)nc3c(F)cccn23)n1 [Example 190, 3-[3-(2-{[4-(1,4′-bipiperidin-1-yl)-2-(methyloxy)phenyl]amino}-4-pyrimidinyl)-8-fluoroimidazo[1,2-a]pyridin-2-yl]-N-(2,6-difluorophenyl)benzamide]",0.1 to 0.5,0.25 to 1,< 0.1,0.25 to 1

# The next lines start with the values.
IC50 [1] [µM],IC50 [2] [µM],IC50 [3] [µM],IC50 [4] [µM],Structure (SMILES)
< 0.1,0.25 to 1,< 0.1,< 0.25,"CS(=O)(=O)CCN1CCN(C2CCN(c3ccc(Nc4nccc(-c5c(-c6cccc(C(=O)Nc7c(F)cccc7F)c6)nc6ccccn56)n4)c(OCC(F)(F)F)c3)CC2)CC1 [Example 120, N-(2,6-difluorophenyl)-3-{3-[2-({4-(4-{4-[2-(methylsulfonyl)ethyl]-1-piperazinyl}-1-piperidinyl)-2-[(2,2,2-trifluoroethyl)oxy]phenyl}amino)-4-pyrimidinyl]imidazo[1,2-a]pyridin-2-yl}benzamide]"
< 0.1,0.25 to 1,< 0.1,< 0.25,"CCOc1ccc(-c2nc3ccccn3c2-c2ccnc(Nc3ccc(N4CCN(CCOC)CC4)cc3OC)n2)cc1C(=O)Nc1c(F)cccc1F [Example 238, N-(2,6-difluorophenyl)-2-(ethyloxy)-5-(3-{2-[(2-(methyloxy)-4-{4-[2-(methyloxy)ethyl]-1-piperazinyl}phenyl)amino]-4-pyrimidinyl}imidazo[1,2-a]pyridin-2-yl)benzamide]"
< 0.1,< 0.25,< 0.1,< 0.25,"CCOc1cc(N2CCN(CCS(C)(=O)=O)CC2)c(C)cc1Nc1nccc(-c2c(-c3ccc(OCC)c(C(=O)Nc4c(F)cccc4F)c3)nc3ccccn23)n1 [Example 248, N-(2,6-difluorophenyl)-2-(ethyloxy)-5-(3-{2-[(2-(ethyloxy)-5-methyl-4-{4-[2-(methylsulfonyl)ethyl]-1-piperazinyl}phenyl)amino]-4-pyrimidinyl}imidazo[1,2-a]pyridin-2-yl)benzamide]"
< 0.1,0.25 to 1,< 0.1,< 0.25,COc1cc(N2CCC(N3CCN(C(C)=O)CC3)CC2)ccc1Nc1nccc(-c2c(-c3cccc(C(=O)Nc4c(F)cccc4F)c3)nc3ccccn23)n1 [Example 70]
< 0.1,0.25 to 1,< 0.1,< 0.25,"COc1cc(N2CCC(N3CCN(CCS(C)(=O)=O)CC3)CC2)ccc1Nc1nccc(-c2c(-c3cccc(C(=O)Nc4c(F)cccc4F)c3)nc3ccccn23)n1 [Example 59, N-(2,6-difluorophenyl)-3-[3-(2-{[2-(methyloxy)-4-(4-{4-[2-(methylsulfonyl)ethyl]-1-piperazinyl}-1-piperidinyl)phenyl]amino}-4-pyrimidinyl)imidazo[1,2-a]pyridin-2-yl]benzamide]"
